Measurements as given in patent US9856480B2, “Dnazyme for silencing the expression of EGFR” (DCB-USA LLC, priority 2013, dated 2018).
Strand notation (5' to 3'): a small letter for the sugar, then the base; units joined by * are phosphorothioate-linked, units joined directly phosphodiester-linked; [ ] holds rarer units or linkages, { } end groups; capitals alone tell only the bases. d = 2'-deoxy (DNA)

Experiments:
T790M EGFR mRNA = assay: Quantitative real-time PCR of EGFR mRNA knockdown; type: cell-based, human; conditions: for T790M EGFR mRNA expression knocked down (quantitative real-time PCR): 100 nM, 48 h
Protocol: A549, CL1-5, H1975, or CL97 was seeded onto 6-well at 3×10^5 cells/well and cultured overnight. Then, cells were separately treated with 100 nM DzControl or DzT790M-1 with lipofectamine 2000 (Invitrogen). After 48 h, total mRNA were extracted from DNAzyme-treated cells by Mestrisol following manufacturer's protocol. cDNA were synthesized by using RT III kit with random hexamers as primers (Invitrogen). The PCR primers were synthesized by Genomics BioSci & Tech (Taipei, Taiwan). The sequences of PCR primers are listed as follows: […]
The parameters for PCR were: 95° C. for 10 min, then 25 cycles of PCR at 95° C. for 30 s, 60° C. for 30 s, and 72° C. for 60 s. 3% agarose gels were used for electrophoresis of PCR products. The intensity of bands were quantified by Image J. Quantitative RT-PCR was performed on 40 ng total mRNA with the LightCycler 480 system (Roche). The PCR mix contained 5 μl of 2× Probe Master mix, 100 nM of UPL probe (Roche Diagnostics, Penzberg, Germany), 200 nM of forward primer and reverse primer, 0.1 ul RNAseout (Invitrogen), and 0.025 ul RTIII enzyme (Invitrogen) in a total volume of 10 μl. PCR parameters were as follows: 50° C. for 40 min, then 45 cycles of PCR at 95° C. for 10 s, 60° C. for 10 s, and 72° C. for 2 s. Data were analyzed by LC480 software (Roche Diagnostics, Penzberg, Germany). The relative amount of EGFR mRNA was normalized to ACTB mRNA. The sequences of PCR primers are as follows: […]
To examine the allele selectivity of DzT790M-1, EGFR mRNA knockdown efficiency was detected in two cell lines harboring wild-type EGFR (A549, CL1-5) and two cell lines containing EGFR T790M mutation (H1975, CL97). A549, CL1-5, H1975, or CL97 was seeded onto 6-well at 3×10^5 cells/well and cultured overnight. Then, cells were separately treated with 100 nM DzControl or DzT790M-1 with lipofectamine 2000 (Invitrogen). After 48 h, total mRNA was extracted. […] DzT790M-1 knocked down 68.2% and 77.4% T790M EGFR mRNA expression in H1975 and CL97 cells respectively. In contrast, in A549 and CL1-5 cells, only 1.1% and 19.2% wild-type EGFR mRNA expression was affected.

[1] = system: A549 cells (EGFR wild-type); assay: Cell proliferation assay (cell counting); type: cell-based, human; conditions: 100 nM, 0-72 h after transfection
Protocol: (§1) A549, CL1-5, H1975, or CL97 was seeded onto 6-well and cultured overnight. Then, cells were separately treated with 100 nM DzControl or DzT790M-1 with lipofectamine 2000 (Invitrogen). Cells were trypsinized and counted at 0 h, 24 h, 48 h, or 72 h after transfection.
(§2) EGFR and downstream signaling pathway regulates important cell functions including cell proliferation and survival. In order to examine functional effects of DzT790M-1 on cell survival, the number of cells was counted after DzControl or DzT790M-1 transfection respectively. In A549 and CL1-5 cells (EGFR wild-type), the rate of cell proliferation or the cell number was not different between DzControl and DzT790M-1 transfected group (FIGS. 4A and 4B). In H1975 and CL97 cells (EGFR T790M), DzControl transfected cells were continued to grow after transfection when the number of DzT790M-1 treated cells was reduced (FIGS. 4C and 4D). In order to figure out whether DzT790M-1 treated cells undergoes cell apoptosis, immunoblotting against cleaved form of PARP and immunostaining of annexin V and PI were performed. The cleavage of PARP is caused by increased activity of caspase-3 and serves as a marker for cell apoptosis. […] While only 3.6% of cells underwent apoptosis and 12.4% of cells were dead in DzControl transfected H1975 cells, 18.6% of cells were detected as apoptotic cells and 32.6% of cells were annexin V and PI double positive in DzT790M-1 treated group (FIG. 4F).

H1975 cells (EGFR T790M) = assay: Cell proliferation assay (cell counting); type: cell-based, human; conditions: 100 nM, 0-72 h after transfection
Protocol: as §1, §2

CL97 cells (EGFR T790M) = assay: Cell proliferation assay (cell counting); type: cell-based, human; conditions: 100 nM, 0-72 h after transfection
Protocol: as §1, §2

[2] = system: CL1-5 cells (EGFR wild-type); assay: Cell proliferation assay (cell counting); type: cell-based, human; conditions: 100 nM, 0-72 h after transfection
Protocol: as §1, §2

EGFR T790M [3] = target: EGFR T790M (Homo sapiens, UniProt P00533, L858R/T790M); assay: Western immunoblotting of EGFR expression and downstream signaling in EGFR T790M mutant cell lines; conditions: H1975^TM/LR; 100 nM; 72 h; 100 ng/ml EGF 15 min
Protocol: (§3) Cells were harvested 72 h after transfecting with 100 nM DzC or DzT. 100 ng/ml EGF were added into culture medium 15 min before cell lysates were harvested. Cell lysates were analyzed by immunoblotting with indicated primary antibodies.
(§4) Cells were harvested 72 h after transfecting with 100 nM cDzC or cDzT. 100 ng/ml EGF were added into culture medium 15 min before cell lysates were harvested. Cell lysates were analyzed by immunoblotting with indicated primary antibodies.
(§5) A549, CL1-5, H1975, or CL97 was seeded onto 6-well at 3×10^5 cells/well and cultured overnight. […] The transfected A549 and CL1-5 cells were serum-starved for 24 h and treated with 100 ng/ml of EGF at 37° C. for 15 min. 72 h after transfection, cell were collected for analysis. Cells were washed twice by ice-cold PBS and then total protein was extracted by RIPA buffer with protease inhibitor (Roche). 50 μg of total protein from the supernatants were boiled for 5 min at 95° C. The samples were resolved on 10% SDS-PAGE gel and transferred onto nitrocellulose membranes. […] Secondary antibodies against rabbit IgG or mouse IgG was used at 1:5000 dilution. Protein bands on membrane were visualized by exposure to the chemiluminescence substrate.
(§6) To examine the effects of DzT790M on protein expression level of EGFR and its downstream signaling, western immunoblotting was performed on DzT790M transfected cells. A549, CL1-5, H1975, or CL97 was seeded onto 6-well at 3×10^5 cells/well and cultured overnight. […] The transfected A549 and CL1-5 cells were serum-starved for 24 h and treated with 100 ng/ml of EGF at 37° C. for 15 min. 72 h after transfection, cell were collected for analysis. Cells were washed twice by ice-cold PBS and then total protein was extracted by RIPA buffer with protease inhibitor (Roche).
(§7) The transfected CL1-5 cells were serum-starved for 24 h and treated with 100 ng/ml of EGF at 37° C. for 15 min. 72 h after transfection, cells were collected for western blotting analysis following the above mentioned procedure. Expression of EGFR and downstream signaling were examined by primary antibodies against human pEGFR (Y1068), tEGFR, pSTAT3 (Y705), tSTAT3, pAKT (S473), tAKT, pERK (T202/Y204), and tERK at 1:1000 dilution and β-actin at 1:10000 dilution, respectively.
(§8) H1975 was seeded onto 6-well at 3×10^5 cells/well and cultured overnight. […] 72 h after transfection, cells were collected for western blotting analysis following the above mentioned procedure. Expression of EGFR and downstream signaling were examined by primary antibodies against human pEGFR(Y1068), tEGFR, pSTAT3 (Y705), tSTAT3, pAKT (S473), tAKT, pERK (T202/Y204), and tERK at 1:1000 dilution and β-actin at 1:10000 dilution, respectively.
(§9) H1975^TM/LR and CL97^TM/GA cells were harvested 72 h after transfecting with DzC or DzT. […]

EGFR T790M [4] = assay: as above; conditions: 100 nM
Protocol: as §3, §4, §5, §6, §7, §8, §9

Substance: DzT790M-1: 10-23 DNAzyme against EGFR T790M mRNA, arms 10/4, phosphorothioate ends: AGCTGCATGAGGCTAGCTACAACGAGAGC (DNA dA*dGdCdTdGdCdAdTdGdAdGdGdCdTdAdGdCdTdAdCdAdAdCdGdAdGdAdG*dC; further chemistry not fully specified)
- T790M EGFR mRNA expression knocked down (quantitative real-time PCR) (T790M EGFR mRNA; CL97 cells): 77.4%
- T790M EGFR mRNA expression knocked down (quantitative real-time PCR) (T790M EGFR mRNA; H1975 cells): 68.2%
- increased knockdown efficiency toward T790M EGFR mRNA over wild-type counterpart (T790M EGFR mRNA; quantitative real-time PCR, H1975, CL97 vs A549, CL1-5): at least 3.5 fold
- rate of cell proliferation or cell number vs DzControl transfected group [1]: not different
- number of cells after transfection (H1975 cells (EGFR T790M)): reduced
- number of cells after transfection (CL97 cells (EGFR T790M)): reduced
- rate of cell proliferation or cell number vs DzControl transfected group [2]: not different
- EGFR protein expression and downstream signaling including EGFR, STAT3, and ERK after EGF treatment (EGFR T790M [3]): remained its suppression effect
- phosphorylation of EGFR Y1068, STAT3 Y705, AKT S473 and ERK T202/Y204 (EGFR T790M [4]; H1975 and CL97 cells, 72 h, ERK not in H1975 cells): decreased phosphorylation
- EGFR protein expression (EGFR T790M [4]; H1975 and CL97 cells, 72 h after transfection): significantly silenced
- EGFR T790M expression and downstream signaling after EGF treatment (EGFR T790M [4]; T790M mutant cells, 72 h, 100 ng/ml EGF 15 min): remains its suppression effect
